Some test systems named below: CCRF-CEM leukemia; DU-145 prostate; MALME-3M melanoma; MCF7 breast; MDA-MB-231 breast; MDA-MB-435; MOLT-4 leukemia; NCI-H522 lung; OVCAR-3 ovarian; OVCAR-4 ovarian; OVCAR-5 ovarian; RPMI-8226 leukemia; RXF 393 renal; SF-268 CNS; SK-MEL-5 melanoma; SNB-19 CNS; SR leukemia; SW-620 colon; HCT-116 colon.
What all share (assay): NCI-60 cell line screen, 48 h

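Each compound was tested at five concentrations against cells in 96-well plates for 48 hours. TGI denotes the concentration required for complete inhibition of growth.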

With `C[C@@H]1O[C@@H]2OCC[C@@H]2C2=C1C(=O)c1ccccc1C2=O`, the TGI in the test with CCRF-CEM leukemia is 33.8 µM; with DU-145 prostate it was 21 µM; in the test with MALME-3M melanoma, 4.95 µM; in the test on MCF7 breast, 2.81 µM; in the test on MDA-MB-231 breast, more than 100 µM; with MDA-MB-435, 3.69 µM. Besides, the TGI in the test on MOLT-4 leukemia was more than 100 µM; in the test with NCI-H522 lung it was 20.3 µM; in the test on OVCAR-3 ovarian, 10.2 µM; in the test with OVCAR-4 ovarian, 16.4 µM; with OVCAR-5 ovarian, 4.3 µM; with RPMI-8226 leukemia, 30.9 µM. The TGI in the test on RXF 393 renal turned out to be 13.3 µM; with SF-268 CNS, 16.9 µM; in the test with SK-MEL-5 melanoma it was 19.2 µM; with SNB-19 CNS, 36.5 µM; in the test on SR leukemia, 28.1 µM; in the test with SW-620 colon it was 15.2 µM.

For the compound `COc1ccc(Oc2nc3cc(C(F)(F)F)ccc3nc2C(C)C)cc1`, the TGI in the test on CCRF-CEM leukemia is more than 100 µM; in the test with DU-145 prostate, more than 100 µM; in the test with HCT-116 colon it was more than 100 µM; with MALME-3M melanoma, 72.4 µM; with MCF7 breast, 39.5 µM; with MDA-MB-231 breast it was 79 µM. Besides, the TGI in the test on MDA-MB-435 is more than 100 µM; with MOLT-4 leukemia it was 36.9 µM; in the test on NCI-H522 lung it was 41.3 µM; in the test on OVCAR-3 ovarian it was 93.3 µM; with OVCAR-4 ovarian it was more than 100 µM; with OVCAR-5 ovarian it was 77.4 µM. The TGI is 42.4 µM in the test with RPMI-8226 leukemia; 40.7 µM in the test with RXF 393 renal; more than 100 µM in the test on SF-268 CNS; 52.2 µM with SK-MEL-5 melanoma; more than 100 µM in the test on SNB-19 CNS; 36.6 µM in the test with SR leukemia. For the same compound, the TGI in the test on SW-620 colon was 84.2 µM.

As to `COc1ccc(OC)c2c1C(=O)C(Cl)=C(Cl)C2=O`, the TGI was more than 100 µM in the test on CCRF-CEM leukemia; 37.6 µM in the test on DU-145 prostate; 3.86 µM in the test with HCT-116 colon; 4.46 µM in the test on MALME-3M melanoma; 10.4 µM with MCF7 breast; 6.57 µM in the test on MDA-MB-231 breast. The TGI with MDA-MB-435 came to 5.88 µM; in the test with MOLT-4 leukemia it was 8.87 µM; in the test on NCI-H522 lung, 4.68 µM; in the test with OVCAR-3 ovarian, 7.85 µM; with OVCAR-4 ovarian, 13 µM; with OVCAR-5 ovarian, 29.6 µM. Besides, the TGI in the test on RPMI-8226 leukemia is more than 27.6 µM; in the test with RXF 393 renal, 3.65 µM; with SF-268 CNS, 27 µM; in the test on SK-MEL-5 melanoma, 14.1 µM; in the test with SNB-19 CNS it was more than 77.4 µM; in the test on SR leukemia, more than 88 µM. In the test on SW-620 colon, this compound yielded a TGI of 3.6 µM.

As for `CCN(CC)CC1CCCCN1CC(=O)N1c2ccc(Br)cc2C(=O)Nc2cccnc21` (stereo not drawn), the TGI with CCRF-CEM leukemia, with DU-145 prostate, with HCT-116 colon, with MALME-3M melanoma, in the test with MCF7 breast and in the test with MDA-MB-231 breast was more than 100 µM in each case. The TGI in the test on MDA-MB-435, with MOLT-4 leukemia, in the test on NCI-H522 lung, in the test on OVCAR-3 ovarian, in the test with OVCAR-4 ovarian and in the test on OVCAR-5 ovarian was more than 100 µM throughout. For the same compound, the TGI with RPMI-8226 leukemia, in the test on RXF 393 renal, with SF-268 CNS, in the test on SK-MEL-5 melanoma, in the test on SNB-19 CNS and with SR leukemia was more than 100 µM each time.

For the compound `C/C(=N/NC(=S)Nc1cccc(Cl)c1)c1cccc(/C(C)=N\NC(=S)Nc2cccc(Cl)c2)n1`, the TGI in the test with CCRF-CEM leukemia is 16.2 µM; with DU-145 prostate, more than 73.1 µM; with HCT-116 colon, more than 35.4 µM; in the test on MALME-3M melanoma, 22.4 µM; in the test on MCF7 breast, 8.94 µM; in the test on MDA-MB-231 breast, more than 100 µM. The TGI is more than 100 µM in the test with MDA-MB-435; 8.67 µM with MOLT-4 leukemia; more than 27 µM in the test on NCI-H522 lung; more than 100 µM in the test on OVCAR-4 ovarian; more than 85.8 µM in the test on OVCAR-5 ovarian; 15.9 µM in the test with RPMI-8226 leukemia. Also, the TGI was more than 43.9 µM in the test on RXF 393 renal; more than 47.8 µM with SF-268 CNS; 35 µM with SK-MEL-5 melanoma; more than 100 µM in the test with SNB-19 CNS; 4.56 µM with SR leukemia; more than 100 µM with SW-620 colon.

For `Cc1nnc2sc(-c3ccc(N)cc3)nn12`, the TGI in the test on CCRF-CEM leukemia, in the test with DU-145 prostate, in the test with HCT-116 colon, in the test with MALME-3M melanoma, in the test with MCF7 breast and in the test on MDA-MB-231 breast was more than 100 µM in each case. The TGI in the test on MDA-MB-435, with MOLT-4 leukemia, in the test with NCI-H522 lung, in the test on OVCAR-3 ovarian, with OVCAR-4 ovarian and in the test with OVCAR-5 ovarian was more than 100 µM in each case. Moreover, the TGI with RPMI-8226 leukemia, in the test with RXF 393 renal, in the test on SF-268 CNS, in the test on SK-MEL-5 melanoma, with SNB-19 CNS and with SR leukemia was more than 100 µM in each case. For the same compound, in the test on SW-620 colon, the TGI is more than 100 µM.

With `N[C@H]1CCc2c1nc1c(c2-c2ccccc2)CC[C@@H]1N`, the TGI in the test on CCRF-CEM leukemia was 40.7 µM; in the test with DU-145 prostate, more than 100 µM; in the test with HCT-116 colon, 45.6 µM; in the test on MALME-3M melanoma it was 31.9 µM; in the test with MCF7 breast it was 64.3 µM; in the test on MDA-MB-231 breast it was 66 µM. In addition, the TGI in the test with MDA-MB-435 is 30.2 µM; in the test on MOLT-4 leukemia, 27.6 µM; in the test with NCI-H522 lung, 30.1 µM; with OVCAR-4 ovarian, more than 100 µM; with OVCAR-5 ovarian, 59.7 µM; in the test with RPMI-8226 leukemia it was more than 100 µM. Moreover, the TGI was 59.8 µM in the test on SF-268 CNS; 29.7 µM in the test on SK-MEL-5 melanoma; more than 100 µM in the test with SNB-19 CNS; more than 100 µM with SR leukemia; 27.5 µM in the test on SW-620 colon.

Source of the values: PubChem BioAssay (NCI).
